According to patent US9359308B2, “Pyrazine kinase inhibitors” (Portola Pharmaceuticals, Inc., priority 2011, dated 2016):

The molecules below were run against T1, full length active recombinant SYK enzyme (Homo sapiens, UniProt P43405) (assay: Inhibition of Syk tyrosine phosphorylation activity (LANCE TR-FRET kinase assay)). Details: activity in the Syk assays, class symbols.
T1 construct: full length active recombinant SYK enzyme (Millipore, Calif.); purchased Millipore
Assay type: biochemical
From the text: The in vitro and in vivo human Syk activities of the inventive compounds can be determined by various procedures known in the art, such as a test for their ability to inhibit the activity of human plasma Syk. […] The IC50 value is the concentration (in nM) of the compound required to provide 50% inhibition of human Syk proteolytic activity.
An in vitro assay for detecting and measuring inhibition activity against Syk is as follows:
Inhibition of Syk Tyrosine Phosphorylation Activity
Potency of candidate molecules for inhibiting Syk tyrosine phosphorylation activity is assessed by measuring the ability of a test compound to inhibit Syk-mediated tyrosine phosphorylation of a Syk-specific substrate.
SYK tyrosine phosphorylation activity is measured using the LANCE™ Technology developed by Perkin Elmer Life and Analytical Sciences (Boston, Mass.). LANCE™ refers to homogeneous time resolved fluorometry applications using techniques such as time-resolved fluorescence resonance energy transfer assay (TR-FRET) (see generally for procedures in Perkin Elmer Application Note-How to Optimize a Tyrosine Kinase Assay Using Time Resolved Fluorescence-Based LANCE Detection, wwww.perkinelmer.com/lifesciences). The assay principle involves detection of a phosphorylated substrate using energy transfer from a phosphospecific europium-labeled antibody to streptavidin-allophycocyanin as an acceptor.
To test the ability of candidate molecules to inhibit SYK tyrosine phosphorylation activity, molecules are reconstituted in 30% DMSO and serially diluted 1:3 with the final dilution containing DMSO in the absence of the candidate molecule. The final DMSO concentration in the assay is 3%. Kinase assays are performed as a two part reaction. The first reaction is a kinase reaction and which comprises of a candidate molecule, full length active recombinant SYK enzyme (Millipore, Calif.) and biotin-labeled SYK-specific substrate biotin-DEEDYESP-OH. The second reaction involves termination of the kinase reaction and the simultaneous addition of the detection reagents-europium-labeled anti-phosphotyrosine reagent (Eu-W1024-PY100, Perkin Elmer, Boston, Mass.) and Streptavidin-Allophycocyanin detection reagent (SA-APC, Prozyme, CA). The kinase reaction is performed in a black U-bottom 96-well microtitre plate. The final reaction volume is 50 μL and contains a final concentration of 1 nM active SYK enzyme, 550 nM SYK-substrate, and 100 μM ATP diluted in a buffer containing 50 mM Tris pH 7.5, 5 mM MgCl2, and 1 mM DTT. The reaction is allowed to proceed for 1 hour at room temperature. The quench buffer contains 100 mM Tris pH 7.5, 300 mM NaCl2, 20 mM EDTA, 0.02% Brij35, and 0.5% BSA. The detection reagents are added to the reaction mixture at the following dilutions-1:500 for Eu-W1024-PY100 and 1:250 for SA-APC. The kinase reaction is terminated by the addition of 50 μL quench buffer containing the detection reagents. The detection is allowed to proceed for 1 hr at room temperature. Detection of the phosphorlated substrate in the absence and presence of inhibitors is measured in the TR-FRET instrument, Analyst HT (Molecular Probes, Sunnyvale, Calif.) and the condition for measurements are set up using CriterionHost Release 2.0 (Molecular Probes, Sunnyvale, Calif.). The settings used are a follows: excitation 360 nm, emission 665-7.5 nm, beam splitter 350 nm 50/50, flash 100 pulses, delay 60 us, integration 400 us, z-height 2 mm. Inhibition of SYK-tyrosine kinase activity is calculated as the maximum response observed in the presence of inhibitor, compared to that in the absence of inhibitor. IC50s were derived by non-linear regression analysis.

| SMILES | IC50 [nM] |
| --- | --- |
| CC[C@@H](Nc1cnc(C(N)=O)c(Nc2ccc(-c3nnco3)cc2)n1)C(N)=O [Example 27, (R)-3-(4-(1,3,4-oxadiazol-2-yl)phenylamino)-5-(1-amino-1-oxobutan-2-ylamino)pyrazine-2-carboxamide] | 10 to 100 |
| CC[C@@H](Nc1cnc(C(N)=O)c(Nc2ccc(-c3ccncc3)cc2)n1)C(N)=O [Example 28, (R)-5-(1-amino-1-oxobutan-2-ylamino)-3-(4-(pyridin-4-yl)phenylamino)pyrazine-2-carboxamide] | 1 to 10 |
| CC[C@@H](Nc1cnc(C(N)=O)c(Nc2ccc(-c3cccnc3)cc2)n1)C(N)=O [Example 29, (R)-5-(1-amino-1-oxobutan-2-ylamino)-3-(4-(pyridin-3-yl)phenylamino)pyrazine-2-carboxamide] | 1 to 10 |
| CC[C@@H](Nc1cnc(C(N)=O)c(Nc2ccc3c(c2)CCC(=O)N3)n1)C(N)=O [Example 30, (R)-5-(1-amino-1-oxobutan-2-ylamino)-3-(2-oxo-1,2,3,4-tetrahydroquinolin-6-ylamino)pyrazine-2-carboxamide] | 1 to 10 |
| NC(=O)c1ncc(N[C@H](Cc2ccccc2)C(N)=O)nc1Nc1ccc2ncccc2c1 [Example 31, (R)-5-(1-amino-1-oxo-3-phenylpropan-2-ylamino)-3-(quinolin-6-ylamino)pyrazine-2-carboxamide] | 1 to 10 |
| NC(=O)c1ncc(N[C@H](Cc2cccs2)C(N)=O)nc1Nc1ccc2ncccc2c1 [Example 32, (R)-5-(1-amino-1-oxo-3-(thiophen-2-yl)propan-2-ylamino)-3-(quinolin-6-ylamino)pyrazine-2-carboxamide] | < 1 |
| NC(=O)c1ncc(N[C@@H](C(N)=O)c2ccccc2)nc1Nc1ccc2ncccc2c1 [Example 33, (R)-5-(2-amino-2-oxo-1-phenylethylamino)-3-(quinolin-6-ylamino)pyrazine-2-carboxamide] | 1 to 10 |
| NC(=O)c1ncc(NC2(C(N)=O)CCC2)nc1Nc1ccc2ncccc2c1 [Example 34, 5-(1-carbamoylcyclobutylamino)-3-(quinolin-6-ylamino)pyrazine-2-carboxamide] | 1 to 10 |
| NC(=O)c1ncc(N[C@@H]2CCCC[C@@H]2N)nc1NC1CCOCC1 [Example 35, 5-((1R,2S)-2-aminocyclohexylamino)-3-(tetrahydro-2H-pyran-4-ylamino)pyrazine-2-carboxamide] | > 1000 |
| NC(=O)c1ncc(N[C@@H]2CCCC[C@@H]2N)nc1NC1CCCC1 [Example 36, 5-((1R,2S)-2-aminocyclohexylamino)-3-(cyclopentylamino)pyrazine-2-carboxamide] | > 1000 |
| NC(=O)c1ncc(N[C@@H]2CCCC[C@@H]2N)nc1NC1Cc2ccccc2C1 [Example 37, 5-((1R,2S)-2-aminocyclohexylamino)-3-(2,3-dihydro-1H-inden-2-ylamino)pyrazine-2-carboxamide] | 10 to 100 |
| NC(=O)c1ncc(N[C@@H]2CCCC[C@@H]2N)nc1N[C@@H]1CCc2ccccc21 [Example 38, 5-((1R,2S)-2-aminocyclohexylamino)-3-((R)-2,3-dihydro-1H-inden-1-ylamino)pyrazine-2-carboxamide] | 100 to 1000 |
| NC(=O)c1ncc(N[C@@H]2CCCC[C@@H]2N)nc1N[C@H]1CCc2ccccc21 [Example 39, 5-((1R,2S)-2-aminocyclohexylamino)-3-((S)-2,3-dihydro-1H-inden-1-ylamino)pyrazine-2-carboxamide] | 100 to 1000 |
| NC(=O)c1ncc(N[C@@H]2CCCC[C@@H]2N)nc1Nc1cc(-n2cccn2)cc(-n2cccn2)c1 [Example 44, 5-((1R,2S)-2-aminocyclohexylamino)-3-(3,5-di(1H-pyrazol-1-yl)phenylamino)pyrazine-2-carboxamide] | 1 to 10 |
| NC(=O)c1ncc(N[C@@H]2CCCC[C@@H]2N)nc1Nc1cc(-c2ncccn2)cc(-n2cccn2)c1 [Example 45, 3-(3-(1H-pyrazol-1-yl)-5-(pyrimidin-2-yl)phenylamino)-5-((1R,2S)-2-aminocyclohexylamino)pyrazine-2-carboxamide] | 1 to 10 |
| NC(=O)c1ncc(N[C@@H]2CCNC2)nc1Nc1cnc2ccccc2c1 [Example 55, (R)-5-(pyrrolidin-3-ylamino)-3-(quinolin-3-ylamino)pyrazine-2-carboxamide] | 1 to 10 |

The remaining lines, values ahead:

| IC50 [nM] | SMILES |
| --- | --- |
| 1 to 10 | NC(=O)c1ncc(N[C@@H]2CCNC2)nc1Nc1ccc2ncccc2c1 [Example 56, (R)-5-(pyrrolidin-3-ylamino)-3-(quinolin-6-ylamino)pyrazine-2-carboxamide] |
| 100 to 1000 | NC(=O)c1ncc(N[C@H]2CCCNC2)nc1Nc1cnc2ccccc2c1 [Example 57, (S)-5-(piperidin-3-ylamino)-3-(quinolin-3-ylamino)pyrazine-2-carboxamide] |
| 10 to 100 | NC(=O)c1ncc(N[C@H]2CCCNC2)nc1Nc1ccc2ncccc2c1 [Example 58, (S)-5-(piperidin-3-ylamino)-3-(quinolin-6-ylamino)pyrazine-2-carboxamide] |
| 100 to 1000 | CC(=O)N1CCN(c2ccc(Nc3nc(NC4CC4)cnc3C(N)=O)cc2)CC1 [Example 59, 3-(4-(4-acetylpiperazin-1-yl)phenylamino)-5-(cyclopropylamino)pyrazine-2-carboxamide] |
| > 1000 | CC(=O)N1CCN(c2ccc(Nc3cnc(C(N)=O)c(NC4CC4)n3)cc2)CC1 [Example 60, 5-(4-(4-acetylpiperazin-1-yl)phenylamino)-3-(cyclopropylamino)pyrazine-2-carboxamide] |
| 100 to 1000 | Cc1cccc(Nc2nc(N[C@@H]3CCCC[C@@H]3N)cnc2C(N)=O)c1 [Example 61, 5-((1R,2S)-2-aminocyclohexylamino)-3-(m-tolylamino)pyrazine-2-carboxamide] |
| 100 to 1000 | NC(=O)c1ncc(N[C@@H]2CCCC[C@@H]2N)nc1Nc1ccc(-n2cccn2)cc1 [Example 62, 3-(4-(1H-pyrazol-1-yl)phenylamino)-5-((1R,2S)-2-aminocyclohexylamino)pyrazine-2-carboxamide] |
| 10 to 100 | Cc1cccc(Nc2nc(N[C@H](CC(C)C)C(N)=O)cnc2C(N)=O)c1 [Example 63, (R)-5-(1-amino-4-methyl-1-oxopentan-2-ylamino)-3-(m-tolylamino)pyrazine-2-carboxamide] |
| 10 to 100 | CC(C)C[C@@H](Nc1cnc(C(N)=O)c(Nc2cccc(-n3nccn3)c2)n1)C(N)=O [Example 64, (R)-3-(3-(2H-1,2,3-triazol-2-yl)phenylamino)-5-(1-amino-4-methyl-1-oxopentan-2-ylamino)pyrazine-2-carboxamide] |
| 10 to 100 | CC(C)[C@@H](Nc1cnc(C(N)=O)c(Nc2cccc(-n3nccn3)c2)n1)C(N)=O [Example 65, (R)-3-(3-(2H-1,2,3-triazol-2-yl)phenylamino)-5-(1-amino-3-methyl-1-oxobutan-2-ylamino)pyrazine-2-carboxamide] |
| 1 to 10 | CC(C)[C@@H](Nc1cnc(C(N)=O)c(Nc2cnc3ccccc3c2)n1)C(N)=O [Example 66, (R)-5-(1-amino-3-methyl-1-oxobutan-2-ylamino)-3-(quinolin-3-ylamino)pyrazine-2-carboxamide] |
| 1 to 10 | CC(C)[C@@H](Nc1cnc(C(N)=O)c(Nc2ccc3ncccc3c2)n1)C(N)=O [Example 67, (R)-5-(1-amino-3-methyl-1-oxobutan-2-ylamino)-3-(quinolin-6-ylamino)pyrazine-2-carboxamide] |
